Reference: PubChem BioAssay (NCI)
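Protocol summary: plate cells (96-well), add compound at 5 concentrations, incubate 48 h, interpolate endpoints linearly. TGI marks complete inhibition of growth.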

Tests used:
Test in all cases: DTP human tumour cell line panel, 48 h
TK-10 renal = system: TK-10 renal
HCC-2998 colon = system: HCC-2998 colon
NCI-H226 lung = system: NCI-H226 lung
RXF 393 renal = system: RXF 393 renal
COLO 205 colon = system: COLO 205 colon
K-562 leukemia = system: K-562 leukemia
HOP-92 NSCLC = system: HOP-92 NSCLC
SR leukemia = system: SR leukemia
A549 NSCLC = system: A549 NSCLC
A498 renal = system: A498 renal
HS 578T breast = system: HS 578T breast
ACHN renal = system: ACHN renal
786-0 renal = system: 786-0 renal
NCI-H460 lung = system: NCI-H460 lung
MCF7 breast = system: MCF7 breast
SF-268 CNS = system: SF-268 CNS
SK-MEL-2 melanoma = system: SK-MEL-2 melanoma
SK-MEL-28 melanoma = system: SK-MEL-28 melanoma
EKVX NSCLC = system: EKVX NSCLC
HT29 colon = system: HT29 colon
NCI-H522 lung = system: NCI-H522 lung
MOLT-4 leukemia = system: MOLT-4 leukemia
PC-3 prostate = system: PC-3 prostate
OVCAR-8 ovarian = system: OVCAR-8 ovarian
NCI/ADR-RES ovarian = system: NCI/ADR-RES ovarian
OVCAR-3 ovarian = system: OVCAR-3 ovarian
HCT-15 colon = system: HCT-15 colon
IGROV1 ovarian = system: IGROV1 ovarian
OVCAR-4 ovarian = system: OVCAR-4 ovarian
SNB-75 CNS = system: SNB-75 CNS
UACC-257 melanoma = system: UACC-257 melanoma
HOP-62 NSCLC = system: HOP-62 NSCLC
SK-OV-3 ovarian = system: SK-OV-3 ovarian
UO-31 renal = system: UO-31 renal
U251 CNS = system: U251 CNS
HCT-116 colon = system: HCT-116 colon
T-47D breast = system: T-47D breast
KM12 colon = system: KM12 colon
SF-295 CNS = system: SF-295 CNS
MDA-N = system: MDA-N
CCRF-CEM leukemia = system: CCRF-CEM leukemia
MDA-MB-435 = system: MDA-MB-435
LOX IMVI melanoma = system: LOX IMVI melanoma
UACC-62 melanoma = system: UACC-62 melanoma
RPMI-8226 leukemia = system: RPMI-8226 leukemia
OVCAR-5 ovarian = system: OVCAR-5 ovarian
NCI-H23 lung = system: NCI-H23 lung
HL-60(TB) leukemia = system: HL-60(TB) leukemia
BT-549 breast = system: BT-549 breast
SK-MEL-5 melanoma = system: SK-MEL-5 melanoma
SNB-19 CNS = system: SNB-19 CNS
MALME-3M melanoma = system: MALME-3M melanoma
SN12C renal = system: SN12C renal
SF-539 CNS = system: SF-539 CNS
DU-145 prostate = system: DU-145 prostate
CAKI-1 renal = system: CAKI-1 renal
M14 melanoma = system: M14 melanoma
MDA-MB-231 breast = system: MDA-MB-231 breast
SW-620 colon = system: SW-620 colon

In the case of `CC1OC(OC2C(O[C@H]3CC[C@@]4(C)C(=CC[C@H]5[C@@H]6C[C@@H]7O[C@]8(CC[C@@H](C)CO8)[C@@H](C)[C@@H]7[C@@]6(C)CC[C@@H]54)C3)OC(CO)C(O)C2O)C(O)C(O)C1O` (some centres undefined), the TGI (TK-10 renal) is reported as 3.57 µM, the TGI (HCC-2998 colon) is reported as 2.26 µM and the TGI (NCI-H226 lung) is reported as 8.03 µM. The TGI (RXF 393 renal) was 3.04 µM, the TGI (COLO 205 colon) was 6.33 µM and the TGI (K-562 leukemia) was greater than 25 µM. For the same compound, the TGI (HOP-92 NSCLC) was 6.17 µM, the TGI (SR leukemia) was 6.71 µM and the TGI (A549 NSCLC) was 1.76 µM. It also gave a TGI (A498 renal) of 2.98 µM, a TGI (HS 578T breast) of 3.85 µM and a TGI (ACHN renal) of 3.44 µM. It also gave a TGI (786-0 renal) of 2.37 µM, a TGI (NCI-H460 lung) of 2.34 µM and a TGI (MCF7 breast) of 4.12 µM. For the same compound, the TGI (SF-268 CNS) was 5.46 µM, the TGI (SK-MEL-2 melanoma) was 6.21 µM and the TGI (SK-MEL-28 melanoma) was greater than 11.8 µM. For the same compound, the TGI (EKVX NSCLC) was 6.47 µM, the TGI (HT29 colon) was 2.37 µM and the TGI (NCI-H522 lung) was 2.77 µM. For the same compound, the TGI (MOLT-4 leukemia) was greater than 25 µM, the TGI (PC-3 prostate) was 1.63 µM and the TGI (OVCAR-8 ovarian) was 3.63 µM. The TGI (NCI/ADR-RES ovarian) was 4.64 µM, the TGI (OVCAR-3 ovarian) was 6.65 µM and the TGI (HCT-15 colon) was 5.21 µM. It also gave a TGI (IGROV1 ovarian) of 6.08 µM, a TGI (OVCAR-4 ovarian) of 2.47 µM and a TGI (SNB-75 CNS) of 2.62 µM. The TGI (UACC-257 melanoma) was 4.9 µM, the TGI (HOP-62 NSCLC) was 2.67 µM and the TGI (SK-OV-3 ovarian) was 6.14 µM. The TGI (UO-31 renal) was 1.98 µM, the TGI (U251 CNS) was 1.87 µM and the TGI (HCT-116 colon) was 3.95 µM. It also gave a TGI (T-47D breast) of 8.66 µM, a TGI (KM12 colon) of 2.19 µM and a TGI (SF-295 CNS) of 2.44 µM. It also gave a TGI (MDA-N) of 6.54 µM, a TGI (CCRF-CEM leukemia) of 1.21 µM and a TGI (MDA-MB-435) of 2.8 µM. For the same compound, the TGI (LOX IMVI melanoma) was 3.49 µM, the TGI (UACC-62 melanoma) was 2.7 µM and the TGI (RPMI-8226 leukemia) was greater than 25 µM. The TGI (OVCAR-5 ovarian) was 6.16 µM, the TGI (NCI-H23 lung) was 5.61 µM and the TGI (HL-60(TB) leukemia) was 2.87 µM. For the same compound, the TGI (BT-549 breast) was 8.31 µM, the TGI (SK-MEL-5 melanoma) was 7.52 µM and the TGI (SNB-19 CNS) was 2.38 µM. It also gave a TGI (MALME-3M melanoma) of 6.65 µM, a TGI (SN12C renal) of 3.27 µM and a TGI (SF-539 CNS) of 4.53 µM. The TGI (DU-145 prostate) was 2.53 µM, the TGI (CAKI-1 renal) was 3.54 µM and the TGI (M14 melanoma) was 2.44 µM. For the same compound, the TGI (MDA-MB-231 breast) was 3.14 µM and the TGI (SW-620 colon) was 2.31 µM.
